Measured values from patent US11161839B2, “2-quinolone derived inhibitors of BCL6” (Cancer Research Technology Limited, priority 2017, dated 2021).

Molecular target: human BCL6 BTB domain (Trx-6xHis-BCL6) (Homo sapiens (Human), UniProt P41182)
Assay: HTRF in vitro assay (BCL6 BTB domain / BCOR-AF633 peptide)
Type: binding
[1] = further generated data (Table 1b), 1 nM Trx-6xHis-BCL6, 0.5 nM anti-6xHis-Terbium cryptate
[2] = initially generated data (Table 1a), 10 nM Trx-6xHis-BCL6, 1 nM anti-6xHis-Terbium cryptate

Experimental: The % inhibition at each concentration was calculated by normalising FRET ratio to the appropriate high (DMSO with all reagents) and low (DMSO without BCL6) controls.

SMILES | HTRF pIC50 [1] | HTRF pIC50 [2]
C#CCCNC(=O)[C@@H](C)Nc1cc(=O)n(C)c2ccc(Nc3ccnc(Cl)c3C#N)cc12 [Example 3f, (R)-N-(But-3-yn-1-yl)-2-((6-((2-chloro-3-cyanopyridin-4-yl)amino)-1-methyl-2-oxo-1,2-dihydroquinolin-4-yl)amino)propanamide] | 6.71 | 6.48
CCNC(=O)C(C)(C)Nc1cc(=O)n(C)c2ccc(Nc3ccnc(Cl)c3C#N)cc12 [Example 3h, 2-((6-((2-Chloro-3-cyanopyridin-4-yl)amino)-1-methyl-2-oxo-1,2-dihydroquinolin-4-yl)amino)-N-ethyl-2-methylpropanamide] | 6.41 | 6.40
COC1CCC(NC(=O)[C@@H](C)Nc2cc(=O)n(C)c3ccc(Nc4ccnc(Cl)c4C#N)cc23)CC1 (stereo partly drawn) [Example 3i, (R)-2-((6-((2-Chloro-3-cyanopyridin-4-yl)amino)-1-methyl-2-oxo-1,2-dihydroquinolin-4-yl)amino)-N-(4-methoxycyclohexyl)propanamide] | 6.42 | 6.36
C[C@H](CO)Nc1cc(=O)n(C)c2ccc(Nc3ccnc(Cl)c3C#N)cc12 [Example 3j, (R)-2-chloro-4-((4-((1-hydroxypropan-2-yl)amino)-1-methyl-2-oxo-1,2-dihydroquinolin-6-yl)amino)nicotinonitrile] | 6.14 | 6.05
Cc1nnc(C(C)Nc2cc(=O)n(C)c3ccc(Nc4ccnc(Cl)c4C#N)cc23)o1 (centres unmarked) [Example 3l, 2-Chloro-4-((1-methyl-4-((1-(5-methyl-1,3,4-oxadiazol-2-yl)ethyl)amino)-2-oxo-1,2-dihydroquinolin-6-yl)amino)nicotinonitrile] | 5.93 | 6.16
C[C@@H](Nc1cc(=O)n(C)c2ccc(Nc3ccnc(Cl)c3C#N)cc12)C(=O)NCCc1cnn(C)c1 [Example 3m, (R)-2-((6-((2-Chloro-3-cyanopyridin-4-yl)amino)-1-methyl-2-oxo-1,2-dihydroquinolin-4-yl)amino)-N-(2-(1-methyl-1H-pyrazol-4-yl)ethyl)propanamide] |  | 6.06
C[C@@H](CCO)Nc1cc(=O)n(C)c2ccc(Nc3ccnc(Cl)c3C#N)cc12 [Example 3n, (S)-2-Chloro-4-((4-((4-hydroxybutan-2-yl)amino)-1-methyl-2-oxo-1,2-dihydroquinolin-6-yl)amino)nicotinonitrile] | 6.01 | 6.31
CNC(=O)[C@@H](C)Nc1cc(=O)[nH]c2ccc(Nc3ccnc(Cl)c3C#N)cc12 [Example 3p, (R)-2-((6-((2-chloro-3-cyanopyridin-4-yl)amino)-2-oxo-1,2-dihydroquinolin-4-yl)amino)-N-methylpropanamide] | 6.61 | 6.61
CCNc1cc(=O)n(C)c2ccc(Nc3cc(C(=O)O)nc(Cl)c3C#N)cc12 [Example 4, 6-Chloro-5-cyano-4-[[4-(ethylamino)-1-methyl-2-oxo-6-quinolyl]amino]pyridine-2-carboxylic acid] | 6.07 | 6.06
CCNc1cc(=O)n(C)c2ccc(Nc3cc(C(=O)NC)nc(Cl)c3C#N)cc12 [Example 5, 6-Chloro-5-cyano-4-[[4-(ethylamino)-1-methyl-2-oxo-6-quinolyl]amino]-N-methyl-pyridine-2-carboxamide] | 6.43 | 6.21
CC(Nc1cc(=O)n(C)c2ncc(Nc3ccnc(Cl)c3Cl)cc12)c1ncccn1 (centres unmarked) [Example 6e, 6-((2,3-dichloropyridin-4-yl)amino)-1-methyl-4-((1-(pyrimidin-2-yl)ethyl)amino)-1,8-naphthyridin-2(1H)-one] | 6.28 | 
C[C@@H](Nc1cc(=O)n(C)c2ncc(Nc3ccnc(Cl)c3Cl)cc12)C1CC1 [Example 6f, (R)-4-((1-cyclopropylethyl)amino)-6-((2,3-dichloropyridin-4-yl)amino)-1-methyl-1,8-naphthyridin-2(1H)-one] | 6.21 | 
C[C@@H]1CN(c2cc(Nc3ccc4c(c3)c(N[C@H](C)C3CC3)cc(=O)n4C)c(Cl)cn2)C[C@H](C)O1 [Example 6h, 6-((5-chloro-2-((2S,6R)-2,6-dimethylmorpholino)pyridin-4-yl)amino)-4-(((R)-1-cyclopropylethyl)amino)-1-methylquinolin-2(1H)-one] | 6.00 | 
C[C@@H](Nc1cc(=O)n(C)c2ccc(Nc3cc(N4CCC(C(=O)N(C)C)CC4)ncc3Cl)cc12)C1CC1 [Example 6i, (R)-1-(5-chloro-4-((4-((1-cyclopropylethyl)amino)-1-methyl-2-oxo-1,2-dihydroquinolin-6-yl)amino)pyridin-2-yl)-N,N-dimethylpiperidine-4-carboxamide] | 6.35 | 
CNC(=O)c1cc(Nc2ccc3c(c2)c(NC(C)(C)C)cc(=O)n3C)c(C#N)c(Cl)n1 [Example 7c, 4-((4-(tert-butylamino)-1-methyl-2-oxo-1,2-dihydroquinolin-6-yl)amino)-6-chloro-5-cyano-N-methylpicolinamide] | 6.33 | 
Cn1c(=O)cc(NC(C)(C)c2ncccn2)c2cc(Nc3cc(C(=O)N4CC5(CCO5)C4)nc(Cl)c3C#N)ccc21 [Example 8g, 2-chloro-4-((1-methyl-2-oxo-4-((2-(pyrimidin-2-yl)propan-2-yl)amino)-1,2-dihydroquinolin-6-yl)amino)-6-(1-oxa-6-azaspiro[3.3]heptane-6-carbonyl)nicotinonitrile] | 7.82 | 
Cn1c(=O)cc(NC(C)(C)c2ncccn2)c2cc(Nc3cc(C(=O)N4CC(CC#N)C4)nc(Cl)c3C#N)ccc21 [Example 8h, 2-chloro-6-(3-(cyanomethyl)azetidine-1-carbonyl)-4-((1-methyl-2-oxo-4-((2-(pyrimidin-2-yl)propan-2-yl)amino)-1,2-dihydroquinolin-6-yl)amino)nicotinonitrile] | 7.68 | 
Cn1c(=O)cc(NC(C)(C)c2ncc(C3CC3)cn2)c2cc(Nc3cc(C(=O)O)nc(Cl)c3C#N)ccc21 [Example 9a, 6-chloro-5-cyano-4-((4-((2-(5-cyclopropylpyrimidin-2-yl)propan-2-yl)amino)-1-methyl-2-oxo-1,2-dihydroquinolin-6-yl)amino)picolinic acid] | 7.74 | 
C[C@@H](Nc1cc(=O)n(C)c2ccc(Nc3cc(C(=O)O)nc(Cl)c3C#N)cc12)C1CC1 [Example 9b, (R)-6-chloro-5-cyano-4-((4-((1-cyclopropylethyl)amino)-1-methyl-2-oxo-1,2-dihydroquinolin-6-yl)amino)picolinic acid] | 7.13 | 
Cn1c(=O)cc(NCCF)c2cc(Nc3cc(C(=O)O)nc(Cl)c3C#N)ccc21 [Example 9c, 6-chloro-5-cyano-4-((4-((2-fluoroethyl)amino)-1-methyl-2-oxo-1,2-dihydroquinolin-6-yl)amino)picolinic acid] | 6.05 | 
C[C@H](Nc1cc(=O)n(C)c2ccc(Nc3cc(C(=O)O)nc(Cl)c3C#N)cc12)C1CC1 [Example 9d, (S)-6-chloro-5-cyano-4-((4-((1-cyclopropylethyl)amino)-1-methyl-2-oxo-1,2-dihydroquinolin-6-yl)amino)picolinic acid] | 6.13 | 
Cn1c(=O)cc(NC(C)(C)c2ncccn2)c2cc(Nc3cc(C(=O)O)nc(Cl)c3C#N)ccc21 [Example 9f, 6-chloro-5-cyano-4-((1-methyl-2-oxo-4-((2-(pyrimidin-2-yl)propan-2-yl)amino)-1,2-dihydroquinolin-6-yl)amino)picolinic acid] | 7.65 | 
Cn1c(=O)cc(NC2(C#N)CC2)c2cc(Nc3cc(C(=O)O)nc(Cl)c3C#N)ccc21 [Example 9g, 6-chloro-5-cyano-4-((4-((1-cyanocyclopropyl)amino)-1-methyl-2-oxo-1,2-dihydroquinolin-6-yl)amino)picolinic acid] | 7.05 | 
C#CC1(Nc2cc(=O)n(C)c3ccc(Nc4cc(C(=O)O)nc(Cl)c4C#N)cc23)CC1 [Example 9h, 6-chloro-5-cyano-4-((4-((1-ethynylcyclopropyl)amino)-1-methyl-2-oxo-1,2-dihydroquinolin-6-yl)amino)picolinic acid] | 6.77 | 
Cn1c(=O)cc(NC2CC2(C)C)c2cc(Nc3cc(C(=O)O)nc(Cl)c3C#N)ccc21 (centres unmarked) [Example 9j, 6-chloro-5-cyano-4-((4-((2,2-dimethylcyclopropyl)amino)-1-methyl-2-oxo-1,2-dihydroquinolin-6-yl)amino)picolinic acid] | 6.49 | 
Cn1c(=O)cc(NC2(CO)CC2)c2cc(Nc3cc(C(=O)O)nc(Cl)c3C#N)ccc21 [Example 9k, 6-chloro-5-cyano-4-((4-((1-(hydroxymethyl)cyclopropyl)amino)-1-methyl-2-oxo-1,2-dihydroquinolin-6-yl)amino)picolinic acid] | 6.35 | 
Cn1c(=O)cc(NCC2CC2)c2cc(Nc3cc(C(=O)O)nc(Cl)c3C#N)ccc21 [Example 9l, 6-chloro-5-cyano-4-((4-((cyclopropylmethyl)amino)-1-methyl-2-oxo-1,2-dihydroquinolin-6-yl)amino)picolinic acid] | 6.56 | 
COCC(C)(C)Nc1cc(=O)n(C)c2ccc(Nc3cc(C(=O)O)nc(Cl)c3C#N)cc12 [Example 9m, 6-chloro-5-cyano-4-((4-((1-methoxy-2-methylpropan-2-yl)amino)-1-methyl-2-oxo-1,2-dihydroquinolin-6-yl)amino)picolinic acid] | 7.01 | 
Cn1c(=O)cc(NC(C)(C)C)c2cc(Nc3cc(C(=O)O)nc(Cl)c3C#N)ccc21 [Example 9n, 4-((4-(tert-butylamino)-1-methyl-2-oxo-1,2-dihydroquinolin-6-yl)amino)-6-chloro-5-cyanopicolinic acid] | 6.84 | 
